Test results: ChEMBL document CHEMBL1201862, “PubChem BioAssay data set” (2004)
The source made the active and inactive calls. Rule as the data show it, for most assays here: actives have a measured EC50 and inactives only a lower limit.

Tests used:
[1] = Luminescence Cell-Based Dose Confirmation HTS to Identify Activators of 5'UTR Stem-Loop Driven Alpha-Synuclein mRNA Translation in H4 Neuroglioblastoma Cells. [Related pubchem assays: 1829 (Project Summary), 1814 (Primary HTS)]; assay type: functional
[2] = Luminescence Cell-Based Dose Response HTS to Identify Activators of Luciferase Translation or Activity in H4 […] Cells. [Related pubchem assays: 1829 (Project Summary), 1814 (Primary HTS)]; assay type: functional
H4 = experiment: Luminescence Cell-Based Dose Response HTS to Identify Activators of 5'UTR Stem-Loop Driven Prion Protein mRNA Translation in H4 Neuroglioblastoma Cells. [Related pubchem assays: 1829 (Project Summary), 1814 (Primary HTS)]; assay type: functional; conditions: Homo sapiens
H9c2 = experiment: cells; assay type: functional, cell-based; conditions: Rattus norvegicus, H9c2, Myocardium;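 also: confirmatory concentration-response retest of ultra-high-throughput screening hits for modulation of myocardial damage; cell death induced by hydrogen peroxide oxidative stress; compound pretreatment for 60 min then peroxide exposure for 2 h; potency is for protecting the cells against peroxide damage rather than for killing them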
cells [3] = assay type: functional, cell-based
cells [4] = assay type: functional, cell-based; remark: listed apart in the source
[5] = biological target: T1, Corticotropin-releasing factor receptor 2/Corticotropin-releasing factor-binding protein (Homo sapiens, UniProt P24387+Q13324); experiment: Dose Response confirmation of uHTS hits for small molecule antagonists of the CRF-binding protein and CRF-R2 receptor complex.; assay type: functional; conditions: read-out: IC50_Mean
T1 sequence (Q13324 whole entry): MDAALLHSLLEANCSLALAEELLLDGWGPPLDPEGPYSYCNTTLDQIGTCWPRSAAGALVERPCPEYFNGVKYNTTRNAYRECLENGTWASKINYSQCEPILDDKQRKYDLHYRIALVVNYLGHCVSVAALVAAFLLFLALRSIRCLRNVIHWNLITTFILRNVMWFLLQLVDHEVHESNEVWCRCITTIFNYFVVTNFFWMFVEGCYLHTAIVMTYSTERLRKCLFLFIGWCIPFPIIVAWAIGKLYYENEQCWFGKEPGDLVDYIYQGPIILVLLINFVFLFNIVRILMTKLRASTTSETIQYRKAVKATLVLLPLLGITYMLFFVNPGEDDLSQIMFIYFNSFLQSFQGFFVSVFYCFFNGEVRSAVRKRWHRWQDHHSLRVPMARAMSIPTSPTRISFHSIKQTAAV
T1 sequence (P24387 whole entry): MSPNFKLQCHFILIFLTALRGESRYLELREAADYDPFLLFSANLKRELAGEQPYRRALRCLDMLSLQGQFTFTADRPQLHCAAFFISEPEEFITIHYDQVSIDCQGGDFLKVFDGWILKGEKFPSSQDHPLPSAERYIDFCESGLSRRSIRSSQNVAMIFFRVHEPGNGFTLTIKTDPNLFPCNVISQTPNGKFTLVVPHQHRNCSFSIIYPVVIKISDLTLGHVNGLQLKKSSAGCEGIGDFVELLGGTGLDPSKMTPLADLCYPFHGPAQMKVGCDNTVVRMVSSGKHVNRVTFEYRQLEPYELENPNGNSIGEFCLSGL

[6] = biological target: T1, Corticotropin-releasing factor receptor 2/Corticotropin-releasing factor-binding protein; experiment: activators of CRF receptor 2 with binding protein – uHTS hits, confirmation (AID 602473); assay type: functional; conditions: read-out: EC50_Mean
[7] = HEp-2 cell cytotoxicity, dose response, cytotoxicity control for RSV inhibitor project, HTS (AID 2410); assay type: functional; conditions: human respiratory syncytial virus
[8] = biological target: T2, RNA-binding protein pos-1 (Caenorhabditis elegans, UniProt G5EF15); experiment: inhibitors of POS-1/mex-3 RNA binding, dose response, biochemical, fluorescence polarization (AID 1964);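 also: purified POS-1 fused to maltose binding protein made in E. coli; potency of compounds blocking POS-1 binding to fluorescent RNA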
T2 sequence (G5EF15 whole entry): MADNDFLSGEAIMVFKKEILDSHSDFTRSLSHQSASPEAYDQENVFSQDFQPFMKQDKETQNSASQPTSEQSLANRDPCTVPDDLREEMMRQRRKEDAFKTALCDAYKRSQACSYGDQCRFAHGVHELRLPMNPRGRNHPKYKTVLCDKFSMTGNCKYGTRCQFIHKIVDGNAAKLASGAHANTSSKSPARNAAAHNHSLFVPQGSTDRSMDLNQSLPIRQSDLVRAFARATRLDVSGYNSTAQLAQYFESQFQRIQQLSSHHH

[9] = biological target: T3, Zinc finger protein mex-5 (Caenorhabditis elegans, UniProt Q9XUB2); experiment: MEX-5/TCR-2 RNA interaction inhibitors, dose response, biochemical, C. elegans, fluorescence polarization (AID 1960)
T3 sequence (Q9XUB2 whole entry): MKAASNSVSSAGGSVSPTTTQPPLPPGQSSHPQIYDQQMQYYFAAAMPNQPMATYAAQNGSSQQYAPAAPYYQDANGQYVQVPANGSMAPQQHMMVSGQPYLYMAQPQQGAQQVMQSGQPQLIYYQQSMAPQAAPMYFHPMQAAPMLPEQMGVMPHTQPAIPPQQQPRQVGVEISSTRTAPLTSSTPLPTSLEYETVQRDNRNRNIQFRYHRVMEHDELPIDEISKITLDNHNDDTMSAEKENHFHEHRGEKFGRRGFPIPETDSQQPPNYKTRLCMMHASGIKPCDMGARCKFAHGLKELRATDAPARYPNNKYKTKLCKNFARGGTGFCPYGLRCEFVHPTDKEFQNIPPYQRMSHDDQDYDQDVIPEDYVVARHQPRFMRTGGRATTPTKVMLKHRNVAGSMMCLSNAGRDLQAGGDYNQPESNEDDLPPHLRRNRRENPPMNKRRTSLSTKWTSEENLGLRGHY

O=C(O)C1CCN(C(=O)OCc2ccccc2)CC1
EC50 [1]: 0.602 µM (active)
EC50 [2]: 87.1 µM (active)
EC50 (H4): 6.56 µM (active)

COc1cc(/C=N/NC(=O)NC23CC4CC(CC(C4)C2)C3)ccc1OCC(N)=O
IC50 (H9c2): > 79 µM (inactive)

O=C(Nc1ccc(Cl)cc1)NN1CC(=O)N(c2cccc(C(F)(F)F)c2)CC1=O
EC50 (cells [3]): > 350 µM (not active)
EC50 (cells [4]): > 350 µM (not active)

O=C(CCN1CCCCC1)c1ccc2c(c1)OCO2
IC50 [5]: > 47.1 µM (inactive)
EC50 [6]: > 53 µM (inactive)

CCc1nn(CCCC(=O)N2CCN(c3cccc(C)c3C)CC2)c(=O)c2cc3occc3n12
CC50 [7]: 17 µM (active)

Cc1cccn2c(=O)c(C=O)c(Nc3ccc(S(N)(=O)=O)cc3)nc12
EC50 [1]: 14.8 µM (active)
EC50 [2]: 26.4 µM (active)
EC50 (H4): > 120 µM (not active)

Cc1ccc(N(C(=O)Cn2nnc(-c3ccccc3F)n2)C(C(=O)NC2CCCC2)c2ccncc2)cc1 (stereo unspecified)
IC50 [5]: > 47.1 µM (inactive)
EC50 [6]: > 53 µM (inactive)

CC1CC(C)CN(S(=O)(=O)c2ccc3c(c2)oc(=O)n3CC(=O)NCCCOC(C)C)C1 (stereo unspecified)
EC50 (cells [3]): > 350 µM (not active)
EC50 (cells [4]): > 350 µM (not active)

CC(C)COc1ccc(CN=C(S)Nc2ccccc2)cc1Cl
IC50 [5]: > 47.1 µM (inactive)
EC50 [6]: > 53 µM (inactive)

Cc1cnc(NC(=O)CSc2nc(O)c3ccccc3n2)s1
IC50 (H9c2): > 79 µM (inactive)

O=Nc1c(-c2ccccc2)cc2ccccn12
EC50 [1]: 13.6 µM (active)
EC50 [2]: 12.1 µM (active)
EC50 (H4): 27.4 µM (active)

CC1(C)CC(=O)C2=C(C1)OC(N)=C(C#N)C2c1cc2c(cc1[N+](=O)[O-])OCO2 (stereo unspecified)
EC50 [8]: 18 µM (active)
EC50 [9]: 14.3 µM (active)
EC50 [6]: 5.48 µM (active)

Cn1c(SCC(=O)Nc2ccccc2)nnc1-c1ccc(NC(=O)CCc2ccccc2)cc1
EC50 (cells [3]): > 350 µM (not active)
EC50 (cells [4]): > 350 µM (not active)

O=C(O)c1ccccc1OCCOc1ccccc1C(=O)O
EC50 (cells [3]): > 350 µM (not active)
EC50 (cells [4]): > 350 µM (not active)

Cc1cccc(-n2c(N)cc(=O)[nH]c2=S)c1
EC50 [1]: > 120 µM (not active)
EC50 [2]: > 120 µM (not active)
EC50 (H4): > 120 µM (not active)

NC(=O)c1nsc(C(=O)N(c2ccccc2)C(C(=O)NCc2ccc(F)cc2)c2ccc(O)cc2)c1N (stereo unspecified)
IC50 (H9c2): > 79 µM (inactive)

COc1cc(-c2cc(C(=O)N3CCN(c4ccccn4)CC3)c3ccccc3n2)cc(OC)c1OC
IC50 (H9c2): > 79 µM (inactive)

O=C(CSCC(=O)N1CCCCC1)Nc1nc(-c2ccc(Cl)s2)cs1
EC50 [1]: 29.7 µM (active)
EC50 [2]: 8.35 µM (active)
EC50 (H4): 10.9 µM (active)

O=C(C[n+]1cc(-c2ccc(F)cc2)n2c1CCC2)N1c2ccccc2Sc2ccccc21
EC50 [1]: 7.4 µM (active)
EC50 [2]: 1.06 µM (active)
EC50 (H4): 9.69 µM (active)

CCN(CC)S(=O)(=O)c1ccc2c(c1)N(CC(=O)NCc1ccco1)C(=O)CO2
IC50 [5]: > 47.1 µM (inactive)
EC50 [6]: > 53 µM (inactive)

O=C(NN=Cc1cccc([N+](=O)[O-])c1)c1cc(-c2cccnc2)nc2ccccc12
IC50 (H9c2): > 79 µM (inactive)

Cc1ccc(-n2nnnc2SCC(=O)Nc2sc(C)c(C)c2C#N)cc1C
EC50 [1]: 15.9 µM (active)
EC50 [2]: 15.6 µM (active)
EC50 (H4): > 120 µM (not active)
